Measured values as given in BigSolDB 2.1.

Compound: CCOc1ccc2ccccc2c1C(=O)O
- solubility (mole fraction) (in ethanol, 278.15 K): 0.0268
- solubility (mole fraction) (in ethanol, 283.15 K): 0.0325
- solubility (mole fraction) (in ethanol, 288.15 K): 0.0392
- solubility (mole fraction) (in ethanol, 293.15 K): 0.0469
- solubility (mole fraction) (in ethanol, 298.15 K): 0.0565
- solubility (mole fraction) (in ethanol, 303.15 K): 0.0688
- solubility (mole fraction) (in ethanol, 308.15 K): 0.0836
- solubility (mole fraction) (in ethanol, 313.15 K): 0.101
- solubility (mole fraction) (in ethanol, 318.15 K): 0.119
- solubility (mole fraction) (in ethanol, 323.15 K): 0.136
- solubility (mole fraction) (in methanol, 278.15 K): 0.0304
- solubility (mole fraction) (in methanol, 283.15 K): 0.037
- solubility (mole fraction) (in methanol, 288.15 K): 0.0443
- solubility (mole fraction) (in methanol, 293.15 K): 0.0552
- solubility (mole fraction) (in methanol, 298.15 K): 0.0671
- solubility (mole fraction) (in methanol, 303.15 K): 0.0821
- solubility (mole fraction) (in methanol, 308.15 K): 0.0951
- solubility (mole fraction) (in methanol, 313.15 K): 0.114
- solubility (mole fraction) (in methanol, 318.15 K): 0.134
- solubility (mole fraction) (in methanol, 323.15 K): 0.151
- solubility (mole fraction) (in n-propanol, 278.15 K): 0.0212
- solubility (mole fraction) (in n-propanol, 283.15 K): 0.0236
- solubility (mole fraction) (in n-propanol, 288.15 K): 0.0283
- solubility (mole fraction) (in n-propanol, 293.15 K): 0.0345
- solubility (mole fraction) (in n-propanol, 298.15 K): 0.0424
- solubility (mole fraction) (in n-propanol, 303.15 K): 0.0511
- solubility (mole fraction) (in n-propanol, 308.15 K): 0.0632
- solubility (mole fraction) (in n-propanol, 313.15 K): 0.0779
- solubility (mole fraction) (in n-propanol, 318.15 K): 0.092
- solubility (mole fraction) (in n-propanol, 323.15 K): 0.114
